Laboratory results: patent US20250134874A1, “PHARMACEUTICAL FORMULATIONS COMPRISING 3-({[(4R)-7-{METHYL[4-(PROPAN-2-YL)PHENYL]AMINO}-3,4-DIHYDRO-2H-1-BENZOPYRAN-4-YL]METHYL}AMINO)PYRIDINE-4-CARBOXYLIC ACID” (TACHYON THERAPEUTICS, INC., priority 2021, published 2025)
pEC50, pIC50: −log10 of the molar value.

Tested on: 301 cancer cell lines from different tumor types (OncoPanel; HD Biosciences)
Assay: 2D cell viability inhibition assay (CellTiter-Glo) in cancer cell line panel
Format: cell-based
Settings: Homo sapiens
Protocol: In a larger screening study, compound 1 was evaluated across a broad cancer cell line panel (OncoPanel; HD Biosciences) composed of 301 cancer cell lines from different tumor types.
2D cell viability inhibition assays were performed in multiwell plates seeded with cells from the panel. After seeding, the plates were cultured overnight in a humidified incubator at 37° C. to promote adherence. Assays were initiated in individual wells by adding either DMSO as a vehicle control, growth media as a blank, or serially diluted compound 1 (10 μM to 0.0005 μM with 1:3 serial dilution). Cultures were incubated for 168 hours after which the number of viable cells in each test well was assessed using the CellTiter-Glo® Luminescent Cell Viability Assay. Luminescence readouts were performed using an EnVision® Multilabel Reader and the compound 1 readouts were normalized to the DMSO control readouts, expressed as a percent of the control. Outliers were flagged out by visual inspection. Percent of control was plotted against the corresponding compound 1 concentration and the absolute IC50 value was determined using four-parameter logistic non-linear regression as the concentration where inhibition was 50% of the control. For maximum inhibition <50%, the absolute IC50 was reported as >10. In addition to EC50 and IC50, AUC was determined and was normalized to the area corresponding to theoretical no-inhibition (the rectangular area defined by the compound dose range and 0 to 100 in y). Emax was recorded as the minimum in y with the compound dose range. For those cell lines where Emax>40, EC50 was manually set to 10 μM. A hierarchical clustering algorithm based on Euclidean distance between the standardized input values and “Ward.D” method as implemented in R hclust function was used to visualize the compound 1 cellular potency data. The sensitive/moderate/resistant calls for each cell line was determined by visually inspecting the resulting clustering dendrogram. All the analyses were done in R Core Team.

[1] = Detroit 562, DETROIT562 cell line
[2] = Granta-519, GRANTA519 cell line
[3] = KARPAS-422, KARPAS422 cell line

## CC(C)c1ccc(N(C)c2ccc3c(c2)OCC[C@H]3CNc2cnccc2C(=O)O)cc1 [Compound 1, 3-({[(4R)-7-{methyl[4-(propan-2-yl)phenyl]amino}-3,4-dihydro-2H-1-benzopyran-4-yl]methyl}amino)pyridine-4-carboxylic acid]
Calu-6, CALU6 cell line
  pIC50: 7.83
Caov-3, CAOV3 cell line
  pEC50: 8.28
  pIC50: 8.19
Capan-2, 168 h, CAPAN2, pancreas, ductal carcinoma, 168 hours
  pIC50: < 5.00
DLD-1, DLD1 cell line
  pEC50: 8.83
  pIC50: 8.60
DMS-53, 168 h, DMS53, lung, small cell carcinoma, 168 hours
  pIC50: < 5.00
DMS-79, DMS79 cell line
  pEC50: 8.89
  pIC50: 8.46
DMS-153, DMS153 cell line
  pIC50: < 5.00
DMS-273, DMS273 cell line
  pEC50: 7.79
  pIC50: 7.65
DU-145, DU145 cell line
  pEC50: 7.78
  pIC50: 7.75
DV-90, DV90 cell line
  pEC50: 8.27
  pIC50: 8.13
Daoy, 168 h, central nervous system, NS
  pIC50: < 5.00
Daudi, DAUDI cell line
  pEC50: 7.87
  pIC50: 7.83
[1]
  pEC50: 7.98
  pIC50: 7.78
FTC-133, FTC133 cell line
  pEC50: 8.37
  pIC50: 8.13
G-361, 168 h, G361, skin, NS, 168 hours
  pIC50: < 5.00
G-401, G401 cell line
  pEC50: 8.36
  pIC50: 8.35
GI-1, GI1 cell line
  pEC50: 6.53
  pIC50: 6.54
[2]
  pEC50: 7.83
  pIC50: 7.75
HCC38, 168 h, HCC38, breast, ductal carcinoma, 168 hours
  pIC50: < 5.00
HCC70, HCC70 cell line
  pEC50: 8.07
  pIC50: 7.96
HCC78, HCC78 cell line
  pEC50: 7.90
  pIC50: 7.62
HCC95, HCC95 cell line
  pEC50: 8.48
  pIC50: 8.36
HCC827, 168 h, HCC827, lung, adenocarcinoma, 168 hours
  pIC50: < 5.00
HCC1143, HCC1143 cell line
  pIC50: < 5.00
HCC1187, HCC1187 cell line
  pEC50: 8.51
  pIC50: 8.19
HCC1419, 168 h, HCC1419, breast, ductal carcinoma, 168 hours
  pIC50: < 5.00
HCC1428, 168 h, HCC1428, breast, NS, 168 hours
  pIC50: < 5.00
HCC1599, HCC1599 cell line
  pEC50: 8.42
  pIC50: 8.25
HCC1806, HCC1806 cell line
  pEC50: 8.29
  pIC50: 7.89
HCC1937, 168 h, HCC1937, breast, ductal carcinoma, 168 hours
  pIC50: < 5.00
HCC1954, HCC1954 cell line
  pIC50: 7.39
HCC2935, HCC2935 cell line
  pIC50: < 5.00
HCT-15, HCT15 cell line
  pEC50: 8.83
  pIC50: 8.75
HCT-116, HCT116 cell line
  pEC50: 8.30
  pIC50: 7.69
HEL, HEL cell line
  pEC50: 8.44
  pIC50: 7.93
HL-60, HL60 cell line
  pEC50: 8.09
  pIC50: 8.03
HLE, HLE cell line
  pEC50: 7.98
  pIC50: 7.95
HMCB, HMCB cell line
  pEC50: 9.09
  pIC50: 7.95
HPAC, HPAC cell line
  pEC50: 8.62
  pIC50: 8.41
HSC-2, HSC2 cell line
  pEC50: 8.29
  pIC50: 8.10
HSC-3, HSC3 cell line
  pIC50: 7.22
HSC-4, HSC4 cell line
  pEC50: 8.36
  pIC50: 8.16
HT55, HT55 cell line
  pEC50: 7.90
  pIC50: 7.85
HT-29, HT29 cell line
  pEC50: 7.64
  pIC50: 7.43
HT-144, 168 h, HT144, skin, NS, 168 hours
  pIC50: < 5.00
HT-1080, HT1080 cell line
  pEC50: 7.89
  pIC50: 7.85
HT-1376, HT1376 cell line
  pEC50: 7.75
  pIC50: 7.44
HepG2, HEPG2 cell line
  pEC50: ≤ 5.00
  pIC50: 7.28
Hs 294T, HS294T cell line
  pEC50: 7.51
  pIC50: 7.18
Hs 695T, 168 h, HS695T, skin, NS
  pIC50: < 5.00
Hs-578T, HS578T cell line
  pEC50: 8.16
  pIC50: 7.86
HuH-1, HUH1 cell line
  pEC50: 7.98
  pIC50: 7.93
HuTu80, HUTU80 cell line
  pEC50: 8.38
  pIC50: 8.36
Huh-7, HUH7 cell line
  pEC50: 7.89
  pIC50: 7.86
J82, J82 cell line
  pIC50: < 5.00
JIMT-1, JIMT1 cell line
  pEC50: 7.33
  pIC50: 7.21
JeKo-1, JEKO1 cell line
  pEC50: 8.64
  pIC50: 8.74
Jurkat, JURKAT cell line
  pEC50: 8.78
  pIC50: 8.83
K562, K562 cell line
  pEC50: 8.39
  pIC50: 8.34
KALS-1, KALS1 cell line
  pIC50: < 5.00
[3]
  pEC50: 8.27
  pIC50: 8.19
KATO III, KATOIII cell line
  pEC50: 7.39
  pIC50: 7.36
KM12, KM12 cell line
  pEC50: 8.20
  pIC50: 8.13
KMS-11, KMS11 cell line
  pEC50: 7.96
  pIC50: 7.91
KNS-62, KNS62 cell line
  pEC50: 7.91
  pIC50: 7.83
KU-19-19, KU1919 cell line
  pEC50: 8.06
  pIC50: 7.99
